Measured values reported in PubChem BioAssay AID1053172 (The Scripps Research Institute Molecular Screening Center, 2014).
Active and inactive are the calls of the source. No rule for the calls is given here.

target: HIV-1 integrase / human LEDGF/p75 complex; assay: blockers of LEDGF/p75-dependent integrase activity – biochemical, TR-FRET, dose response (AID 1053172); details: TR-FRET integrase-LEDGF/p75 DNA integration

Structure (SMILES)	IC50
O=C(N/N=C/c1cccnc1)c1cc(O)c(O)c(O)c1	inactive
O=c1c2cc(O)c(O)cc2oc2cc(O)c(C3OC(CO)C(O)C(O)C3O)c(O)c12 (stereo not given)	1740 nM
N#C/C(=C\c1ccc(O)c(O)c1)C(=O)Nc1cccc2ncccc12	1070 nM
C[n+]1c2cc(N)ccc2cc2ccc(N)cc21	5490 nM
Cc1cc2nc3ccc(N(C)C)cc3nc2cc1N	> 36600 nM (inactive)
CC1(C)OC(C)(C)/C(=C/Nc2ccc(O)cc2)C1=O	inactive
O=c1c(OC2OC(CO)C(O)C(O)C2OC2OC(CO)C(O)C(O)C2O)c(-c2ccc(O)cc2)oc2cc(O)cc(O)c12 (stereo not given)	8050 nM
O=C(O)c1ccc(NC2=C/C(=N/S(=O)(=O)c3cccs3)c3ccccc3C2=O)cc1	996 nM
C[C@@H]1O[C@@H](Oc2c(-c3ccc(O)c(O)c3)oc3cc(O)cc(O)c3c2=O)[C@H](O)[C@H](O)[C@H]1O	2610 nM
COc1c(-c2ccc(O)c(O)c2)oc2cc(O)cc(O)c2c1=O	1900 nM
Cc1ccc(NC2=CC(=O)C(=O)c3ccccc32)cc1	8860 nM
O=C(NN1C(=O)/C(=C/C=C/c2ccco2)SC1=S)c1ccncc1	1200 nM
O=Cc1ccc2oc3nc4n(c(=O)c3c(=O)c2c1)CCCS4	1810 nM
O=S(=O)(O)c1cc(O)c(N=Nc2ccc(O)cc2O)c2ccccc12	inactive
O=S(=O)(c1cc(O)ccc1O)c1cccc2c(S(=O)(=O)c3cc(O)ccc3O)cccc12	inactive
Cc1cc(-c2csc(N)n2)c(C)n1Cc1ccco1	> 36600 nM (inactive)
N/C(=N\N=C/c1ccc(-c2ccc(O)c(C(=O)O)c2)o1)N[N+](=O)[O-]	1550 nM
NNc1cccc(C=Cc2ccccc2)cc1=O	> 36600 nM (inactive)
COC(=O)C1CCN(C(=O)c2cc(-c3ccco3)nc3ccccc23)CC1	5920 nM
Nc1ccc2nc3c(=O)[nH]c(=S)[nH]c3nc2c1	1360 nM
Cc1ccc(N=C2NC(=O)/C(=C/C=C/c3ccco3)S2)cc1C	7350 nM
O=C(Nc1nc(-c2ccco2)c(-c2ccco2)s1)C1CC(=O)N(c2ccc3c(c2)OCCO3)C1 (stereo not given)	inactive
Cc1cc(C(=O)N/N=C/c2ccc(O)c([N+](=O)[O-])c2)c(C)n1-c1ccc(F)cc1	inactive
CCN(CC)c1ccc(N=C2C=CC(=O)C=C2NC(C)=O)cc1	> 36600 nM (inactive)
NC(=S)NN=Cc1nccc2c(N)cccc12	> 36500 nM (inactive)
Cc1ccc(/C=C2/C(=O)c3ccc(C(=O)O)cc3C2=O)o1	2280 nM
CCOC(=O)c1cc2c(=Cc3ccc(N(C)C)cc3)c3ccccc3n2[n+]1C	inactive

Structure (SMILES)	IC50
O=C(CCN1C(=O)/C(=C/c2ccco2)SC1=S)Nc1ccc(C(=O)O)c(O)c1	inactive
C(=C\c1ccco1)/c1ccc2ccccc2n1	> 36500 nM (inactive)
O=C1S/C(=C\C=C\c2ccco2)C(=O)N1c1ccc(O)cc1	9560 nM
N#C/C(=C\c1cc(O)c(O)c(O)c1)C(N)=O	9600 nM
Nc1ccc2cc3ccc(N)cc3nc2c1	4460 nM
O=C1CC(=O)N(Cc2ccco2)C(=O)N1	691 nM
CC1OC(Oc2c(-c3cc(O)c(O)c(O)c3)oc3cc(O)cc(O)c3c2=O)C(O)C(O)C1O (stereo not given)	3090 nM
O=C1NC(=Nc2ccccc2)S/C1=C\C=C\c1ccco1	4380 nM
COc1ccc(N=C2NC(=O)/C(=C\C=C\c3ccco3)S2)cc1	8070 nM
O=C1c2ccccc2C(=O)N1/N=C/c1ccc(O)c(O)c1	3000 nM
COc1cccc(-n2c(SCc3cc(=O)oc4cc(O)c(O)cc34)nc3ccccc3c2=O)c1	3810 nM
O=C1OC(c2cccs2)=N/C1=C/c1ccc(-c2cccc(C(=O)O)c2)o1	inactive
COc1c(O)cc2oc(-c3ccc(O)c(O)c3)cc(=O)c2c1O	1840 nM
Nc1c(C(=O)N/N=C/c2cccnc2)oc2nc(-c3ccco3)cc(-c3ccco3)c12	> 36600 nM (inactive)
Cc1cccc(N=C2NC(=O)/C(=C/C=C/c3ccco3)S2)c1C	2990 nM
Oc1cccc(CN2CCOCC2)c1O	inactive
C[C@@H]1O[C@@H](O[C@@H]2[C@@H](O)[C@H](OCCc3ccc(O)c(O)c3)O[C@H](CO)[C@H]2OC(=O)/C=C/c2ccc(O)c(O)c2)[C@H](O)[C@H](O)[C@H]1O	1410 nM
Cc1nc2ccccc2c(=O)n1/N=C/c1ccc(O)c(O)c1O	2450 nM
NC(=O)c1ccc(N=Cc2c(O)n(Cc3ccco3)c(=O)[nH]c2=O)cc1	inactive
CC1OC(OCC2OC(Oc3c(-c4ccc(O)cc4)oc4cc(O)cc(O)c4c3=O)C(O)C(O)C2O)C(O)C(O)C1O (stereo not given)	8680 nM
O=c1c(O)c(-c2ccc(O)c(O)c2)oc2cc(O)cc(O)c12	498 nM
O=C(N/N=C/c1ccc(F)cc1)c1cc(-c2ccco2)nc2ccccc12	8590 nM
O=C1Nc2ccccc2/C1=N\N=C\c1ccc(O)c(O)c1	696 nM
CN(C)c1ccc2nc3ccc(=O)cc-3sc2c1	> 36500 nM (inactive)
O=c1cc(-c2ccc(O)c(O)c2)oc2c(C3O[C@H](CO)[C@@H](O)[C@H](O)[C@H]3O)c(O)cc(O)c12 (stereo not given in full)	1260 nM
O=C(NN1C(=O)/C(=C/c2ccc(O)c(O)c2)SC1=S)c1ccccc1	1800 nM
C[C@@H]1O[C@@H](Oc2c(-c3cc(O)c(O)c(O)c3)oc3cc(O)cc(O)c3c2=O)[C@H](O)[C@H](O)[C@H]1O	1640 nM

Structure (SMILES)	IC50
COP(=O)(OC)c1ccc(NCc2cc(O)ccc2O)cc1	inactive
O=C(O)CC(C(=O)O)N1C(=O)/C(=C/C=C/c2ccco2)SC1=S (stereo not given)	377 nM
C=C1c2cccc(O)c2C(=O)C2C(=O)[C@]3(O)C(=O)C(C(N)=O)C(=O)[C@@H](N(C)C)[C@@H]3[C@@H](O)[C@H]12 (stereo not given in full)	4760 nM
C=C(C)C(=O)Nc1cccc(C2=NOC3(C2)C[C@@H](C(N)=O)N(C(=O)C(=C)C)C3)c1 (stereo not given in full)	5920 nM
C=C(C)C(=O)Nc1cccc(C2=NOC3(C2)C[C@H](C(N)=O)N(C(=O)/C=C/C)C3)c1 (stereo not given in full)	4720 nM
O=[N+]([O-])c1cc(Br)c(O)c(C=Nc2ccc(N3CCOCC3)cc2)c1	inactive
O=c1cc2c(=O)oc3cc(O)c(O)oc3c2c(O)c1O	244 nM
CC(=O)Nc1ccc2c(COC(=O)CC3Sc4ccccc4NC3=O)cc(=O)oc2c1 (stereo not given)	> 12200 nM (inactive)
O=C(NN1C(=O)/C(=C/C=C/c2ccco2)SC1=S)c1ccccc1O	1850 nM
COc1ccc(/C=N/NC(=O)c2cc(O)c(O)c(O)c2)cc1Cn1cc([N+](=O)[O-])cn1	689 nM
NC1=C(Cl)C(=O)c2ccc(S(N)(=O)=O)cc2C1=O	429 nM
COC(=O)c1cc(O)cc(OC)c1Oc1cc(C)cc(O)c1C(=O)O	2590 nM
O=C(O)C1Nc2c(O)cccc2C2C=CCC12 (stereo not given)	754 nM
COc1cc(/C=C(\C#N)C(=O)c2ccc(O)c(O)c2)cc(I)c1O	752 nM
O=C1c2cc(O)c(O)cc2OC(c2ccc(O)c(O)c2)C1O (stereo not given)	4690 nM
Oc1ccc(/C=N/NC(=S)Nc2cccnc2)cc1O	4500 nM
CCN(CC)CCCNc1ccc2ncn3c4ccc(O)cc4c(=O)c1c23	> 36500 nM (inactive)
COc1ccc(/C=N\NC(=O)c2cc(O)c(O)c(O)c2)cc1CN1CCN(c2ccc(F)cc2)CC1	> 36500 nM (inactive)
O=C(N/N=C\C=C\c1ccc([N+](=O)[O-])o1)c1cccs1	> 36500 nM (inactive)
O=S(=O)(O)c1ccc(O)c2cc(Nc3ccccc3)ccc12	723 nM
Cc1ccc(-c2csc(NS(=O)(=O)c3cccc(F)c3)n2)o1	inactive
CC1CCCC(C)N1/N=C/c1ccc(O)c(O)c1 (stereo not given)	3370 nM
O=C1C(=Cc2ccco2)CCC1=Cc1ccco1	1920 nM
N#C/C(=C\c1ccc(O)c(O)c1)C(=O)c1ccc(O)c(O)c1	79.5 nM
c1coc(-c2ccc3nncn3c2)c1	1180 nM
CC(C(=O)O)N1C(=O)/C(=C/C=C/c2ccco2)SC1=S (stereo not given)	452 nM
COC(=O)c1ccc(C)c(NC(=O)CSc2sc3c(O)cc(=O)[nH]c3c2C#N)c1	inactive

Structure (SMILES)	IC50
Cc1ccc(NC(=O)CN2C(=O)N/C(=C/c3ccco3)C2=O)cc1	> 36500 nM (inactive)
O=C(NCc1ccco1)c1cc2ccc(O)cc2oc1=O	inactive
COCCN(CCOC)Cc1c(O)ccc2c1O/C(=C\c1ccc(C)o1)C2=O	> 36500 nM (inactive)
c1coc(-c2nnc(-c3ccco3)nn2)c1	1750 nM
Cc1ccc(N=C2NC(=O)/C(=C/C=C/c3ccco3)S2)cc1	9140 nM
NC(=O)CC1Nc2cccc3cccc(c23)NC1=O (stereo not given)	> 36500 nM (inactive)
COc1ccc(NC(=O)CSc2sc3c(O)cc(=O)[nH]c3c2C#N)c(OC)c1	inactive
CN(C)c1ccc2cc(S(=O)(=O)O)cc(O)c2c1	4480 nM
O=C(O)Cc1c[nH]c2cccc(O)c12	7410 nM
COCCN=c1scc(-c2ccco2)n1/N=C/c1ccc(O)c(O)c1O	3260 nM
O=C(O)C(Cc1ccccc1)N1C(=O)/C(=C/C=C/c2ccco2)SC1=S (stereo not given)	2740 nM
Cc1ccc(-c2nn(-c3ccccc3)cc2/C=C2\SC(=S)N(CCCCCC(=O)O)C2=O)o1	inactive
C=C(C)C(=O)Nc1cccc(C2=NOC3(C2)C[C@@H](C(N)=O)N(C(=O)C2(C)CC2)C3)c1 (stereo not given in full)	2390 nM
Oc1ccc(C=Nc2cccc3ncccc23)c(O)c1	> 36500 nM (inactive)
CC(=O)Nc1ccc(C(=O)/C=C/c2ccco2)cc1	9780 nM
Cn1cccc1CC(=O)NN=C/C=C\c1ccco1	> 36500 nM (inactive)
COCCN(CCOC)Cc1c(O)ccc2c1O/C(=C\c1ccco1)C2=O	> 12200 nM (inactive)
Cc1c(CC(=O)N2CCN(C(=O)C3COc4ccccc4O3)CC2)c(=O)oc2c(O)c(O)ccc12 (stereo not given)	408 nM
O=C(O)c1ccc(-n2cccc2/C=C2/NC(=O)N(c3cccc(Cl)c3)C2=O)cc1	4250 nM
C=CC1=C(C(=O)O)N2C(=O)[C@@H](NC(=O)/C(=N/OCC(=O)O)c3csc(N)n3)[C@H]2SC1	287 nM
C=CCn1c(C)cc(C(=O)Cn2ncc(Cl)c(Cl)c2=O)c1C	inactive
Oc1ccc(NCc2cccc(OCc3ccccc3)c2)cc1	> 36500 nM (inactive)
S=c1[nH]nc(-c2ccco2)n1/N=C/C=C/c1ccco1	inactive
CCn1c(C)nc2cc(C(=O)N/N=C/c3ccc(O)c(O)c3O)ccc21	429 nM
